Tested on: HMG-CoA reductase (3-hydroxy-3-methyl-glutaryl-coenzyme A reductase)
Test: HMG-CoA reductase enzyme activity determination (modified from G. C. Ness et al.), relative in vitro activity versus mevinolin
Type: biochemical, rat (male Rico rats, liver)
Details: from IC50 values, IC50 of reference mevinolin set at 1; 20 min preincubation at 37° C., 60 min incubation
Method: The enzyme activity determination was carried out as modified by G. C. Ness et al., Archives of Biochemistry and Biphysics 197, 493-499 [1979]. Male Rico rats (body weight 300-400 g) were treated for 11 days with altromin powdered feed to which 40 g of cholestyramine/kg of feed had been added. After description, the livers were removed from the animals and placed on ice. The livers were comminuted and homogenized 3 times in 3 volumes of 0.1 m sucrose, 0.05 m KCl, 0.04 m Kx Hy phosphate, 0.03 m ethylenediaminetetraacetic acid, 0.002 m dithiothreitol [SPE] buffer pH 7.2 in a Potter-Elvejem homogenizer. The mixture was then centrifuged at 15,000 g for 15 minutes and the sediment was discarded. […]
After incubating for 60 minutes at 37° C., the batch was centrifuged and 600 μl of the supernatant was applied to a 0.7×4 cm column packed with a 5-chloride 100-200 mesh (anion exchanger). The column was subsequently washed with 2 ml of distilled water and 3 ml of Aquasol were added to runnings plus washing water and counted in an LKB scintillation counter. IC50 values were determined by intrapolation by plotting the percentage inhibition against the concentration of the compound in the test. In order to determine the relative inhibitory potency, the IC50 value of the reference substance mevinolin was set at 1 and compared with the simultaneously determined IC50 value of the test compound.

relative activity (mevinolin = 1)	SMILES
2	CCCCn1c(=O)[nH]c(=O)c2c(-c3ccc(F)cc3)c(/C=C/[C@@H](O)C[C@@H](O)CC(=O)OC)c(C(C)C)nc21 (relative stereo) [Example 8, Methyl erythro-(E)-7-[1-butyl-5-(4-fluorophenyl)-7-isopropyl-2,4-dioxo-1,2,3,4-terahydro-pyrido(2,3-d)pyrimidin-6-yl]-3,5-dihydroxy-hept-6-enoate]
6	COC(=O)C[C@H](O)C[C@H](O)/C=C/c1c(C(C)C)nc2c(c1-c1ccc(F)cc1)c(=O)[nH]c(=O)n2C (relative stereo) [Example 16, Methyl erythro-(E)-7-[5-(4-fluorophenyl)-7-isopropyl-1-methyl-2,4-dioxo-1,2,3,4-tetrahydro-pyrido(2,3-d)pyrimidin-6-yl]-3,5-dihydroxy-hept-6-enoate]

— patent US5075311A, “HMG-CoA reductase inhibiting substituted pryido (2,3-d) pyrimidines” (Bayer Aktiengesellschaft, priority 1989, dated 1991)
